From patent publication US20260021107A1, “STIMULATOR OF INTERFERON GENES AGONISTS” (INIMMUNE CORP., priority 2022, published 2026)

Experiments:
THF-ISRE cells = experiment: THF luciferase activity, primary (initial) screen in THF-ISRE cells; assay type: cell-based, human; conditions: inducible luciferase reporter signalling upon IRF3 activation, compounds 50 μM to 0.391 μM, 18 hours, luminescence
Method: (§1) STING molecules were screened to determine human STING pathway specificity. THF-ISRE, THF-ISRE STING knock-out (KO), and THF-ISRE TRIF/MAVS KO cell lines contain an inducible luciferase reporter construct that will signal upon IRF3 activation. THF-ISRE STING KO cell line only has the TRIF/MAVS pathway to activate IRF3. THF-ISRE TRIF/MAVS KO cell line uses only the STING pathway for IRF3 activation. Luciferase activity was determined by measuring luminescence.
(§2) The three cell lines were maintained in T-75 flasks with DMEM/High Glucose (Cytiva™, Logan, UT), Pen/Strep/Glutamine (Hyclone™, Logan, UT), and 10% heat inactivated FBS (Hyclone™, Logan, UT).
(§3) For primary screening, THF-ISRE cells were plated at a density of 15,000 cells/well in opaque flat bottom 96-well tissue culture plates. Cells incubated for 36 hours and treated with DMSO (Sigma™, St. Louis, MO) formulated compounds. Before treatment, cell media was changed to 2% FBS in DMEM with antibiotics. Compounds were serially diluted 2-fold, starting at 50 μM and ending at 0.391 μM. Luciferase activity was measured after 18 hours by addition of Steady-Glo Luciferase Assay System (Promega™, Madison, WI) at a 1:1 ratio and luminescence read by plate reader.

human STING pathway = experiment: THF luciferase activity, secondary screen in THF-ISRE TRIF/MAVS KO cells (STING only); assay type: cell-based; conditions: only the STING pathway for IRF3 activation
Method: as §1, §2, §3
The secondary screening used the same procedure as above with THF-ISRE STING KO and THF-ISRE TRIF/MAVS KO cells. If the compound was human STING specific, only THF-ISRE TRIF/MAVS KO cells would have luciferase activity.

| SMILES | luciferase activity (initial screen) (THF-ISRE cells) | luciferase activity in TRIF/MAVS KO cells (STING pathway use) (human STING pathway) |
| --- | --- | --- |
| COc1cccc(F)c1CN1C(=O)CSc2cc(C(=O)NCc3c(F)cc(F)cc3F)ccc21 [INI-3067] | positive luciferase activity | use the STING pathway for luciferase activity |
| CC1Sc2cc(C(=O)NCc3c(F)cc(F)cc3F)ccc2N(Cc2c(O)cccc2F)C1=O (centres unmarked) [INI-3071] | positive luciferase activity | use the STING pathway for luciferase activity |
| O=C(NCc1c(F)cc(F)cc1F)c1ccc2c(c1)SCC(=O)N2Cc1c(O)cccc1F [INI-3069] | positive luciferase activity | use the STING pathway for luciferase activity |
| CC1Sc2cc(C(=O)NCc3ccco3)ccc2N(Cc2c(O)cccc2F)C1=O (centres unmarked) [INI-3070] | positive luciferase activity | use the STING pathway for luciferase activity |
